Data from publication PMC12596500, “Affinity-selected peptide ligands specifically bind i-motif DNA and modulate c-Myc gene expression” (Nucleic Acids Research, 2025).
Like-named read-outs stand apart in the source and are kept apart here. Peptide text beside a SMILES is read from it.

Legend:
Format in all cases: binding
[1] = tested on: c-MycC27; experiment: CD melting of c-MycC27; settings: 10 µM DNA; for TM c-MycC27, first (lower) transition / TM c-MycC27, second (higher) transition: 10 mM NaCaco pH 6.6, 10 molar eqv. peptide, mean ± SEM (n=4); for effect on c-MycC27 thermal stability, in words: pH 6.6, 10 molar equivalents peptide
Procedure: Circular Dichroism (CD) melting experiments were performed in a Jasco J-1500 spectropolarimeter with 10 µM DNA samples in 10 mM sodium cacodylate buffer at pH 6.6 using a 1 mm path length quartz cuvette. […] The samples were kept at 5°C for 5 min before starting the melt, with a temperature increase of 1°C/min, a 0.5°C data interval, and a 60-s holding time at each target temperature. Four scans were accumulated data pitch of 0.5 nm, a scanning speed of 200 nm/min, 1 s response time, 2 nm bandwidth, and 200 mdeg sensitivity. Furthermore, two CD melting experiment repeats were performed recording C-rich c-Myc at 288 and 320 nm, G-rich c-Myc at 264 and 320 nm, and dsDNA at 253 and 320 nm with the settings as described for full spectrum measurements. Data were zero corrected to 320 nm and baseline drift. The melting temperature (TM) was concluded using the Boltzmann or biphasic fitting curve on the folded fraction data using GraphPad Prism version 10.1.2. Data were processed as mean ± SEM (n = 4) and one-way ANOVA followed by Bonferroni post-hoc test to determine significant changes between peptides and controls.

[2] = biological target: c-MycG52; experiment: UV titration, c-MycG52
Procedure: (§1) UV titrations were recorded using an Agilent Cary-60 UV/VIS spectrometer with a 10 mm path length black-walled quartz cuvette. Oligonucleotides (c-MycC27, c-MycC52, c-MycG27, c-MycG52, DAPc, DAPg, and dsDNA; sequences listed in Supplementary Table S1) were annealed as 250 µM stock solutions in 10 mM sodium cacodylate buffer (pH 6.6) in the presence or absence of 100 mM KCl. Spectra were recorded at room temperature over a wavelength range of 300–500 nm with 1 nm intervals. Buffer-only spectra were recorded and subtracted from each dataset as blanks. Peptide ligands were prepared as 1 mM stock solutions in DMSO and added to the cuvette at a final concentration of 10 µM in buffer prior to DNA addition. DNA stock was diluted to 50 µM in buffer and was added stepwise to the peptide solution to reach 2.5 µM final concentration, followed by additions from the 250 µM DNA stock to reach final DNA concentrations of 30 or 50 µM. The absorbance at 350 nm was monitored and plotted against DNA concentration. Binding curves were fitted using a one-site binding model in GraphPad Prism version 10.1.2, and Kd values were determined from normalized data to represent the DNA-ligand bound fraction.
(§2) Despite the demonstrable importance of the extended five-tract C-rich sequence within the c-Myc promoter, most studies looking at ligand binding use the shorter sequences. […] Although the iM-targeting antibody is specific for iM as a structure, it also binds multiple types of iM-structures.

[3] = biological target: dsDNA; experiment: UV titration, dsDNA; design: key to Kd dsDNA, 100 mM KCl: Binding classified as non-specific (NS) showed no consistent or concentration-dependent pattern, under the tested conditions; key to Kd dsDNA: NS = non-specific binding indicates where no significant pattern of binding was observed at the concentration range of the experiment; settings: for Kd dsDNA: UV titration at 350 nm, 10 µM peptide, 10 mM sodium cacodylate pH 6.6, no KCl; for Kd dsDNA, 100 mM KCl: UV titration, 10 mM sodium cacodylate 100 mM potassium chloride pH 6.6, two experiments
Procedure: as §1, §2

[4] = 10 mM sodium cacodylate pH 6.6, 10 molar equivalents peptide vs DMSO, mean ± SEM (n = 4), SEM
[5] = UV titration at 350 nm, 10 µM peptide, 10 mM sodium cacodylate pH 6.6, no KCl, binding did not plateau at the concentration range, read-out: Kd c-MycG52
[6] = read-out: Kd c-MycG52, 100 mM KCl, UV titration, 10 mM sodium cacodylate 100 mM potassium chloride pH 6.6, average of three experiments ± SD, SD

`CC(=O)N1CCC[C@H]1C(=O)N[C@H](C(=O)N[C@@H](CC(N)=O)C(=O)N[C@H](C(=O)N[C@@H](CO)C(=O)NCC(=O)N[C@@H](CCCNC(=N)N)C(=O)N[C@@H](CC(N)=O)C(=O)N[C@@H](Cc1ccc(O)cc1)C(=O)N[C@@H](CC(C)C)C(=O)N[C@@H](Cc1ccccc1)C(=O)N[C@@H](CS)C(N)=O)C(C)C)[C@@H](C)O` [Pep-PTN] (Ac-PTNVSGRNYLFC-NH2) was tested, and the “TM c-MycC27, first (lower) transition” value ([1]; SEM) was 27 ± 0.7 °C, the “TM c-MycC27, second (higher) transition” value ([1]; SEM) was 79 ± 0.5 °C and the “ΔTM c-MycC27, first value (transition at lower temperature)” value [1, 4] was 0 ± 0.5; 0 ± 0.5 °C. The “ΔTM c-MycC27, second value (transition at higher temperature)” value [1, 4] was 0 ± 0.5; 0 ± 0.5 °C, the “effect on c-MycC27 thermal stability, in words” value [1] was “neither stabilized nor destabilized” and the Kd [2, 5] was greater than 50 µM. The Kd [2, 6] was 45 ± 4 µM, the “Kd dsDNA” value [3] was “NS” and the “Kd dsDNA, 100 mM KCl” value [3] was “NS”.
With `CC(=O)N[C@H](C(=O)N[C@@H](CO)C(=O)N[C@@H](CCC(=O)O)C(=O)N[C@@H](C)C(=O)N[C@@H](Cc1c[nH]c2ccccc12)C(=O)N[C@@H](CCCCN)C(=O)N[C@@H](CCC(=O)O)C(=O)N[C@H](C(=O)N[C@@H](CCCCN)C(=O)NCC(=O)N[C@@H](Cc1ccccc1)C(=O)N[C@@H](Cc1ccccc1)C(N)=O)C(C)C)C(C)C` [Pep-VSE] (Ac-VSEAWKEVKGFF-NH2) the “TM c-MycC27, first (lower) transition” value ([1]; SEM) was 26 ± 1.0 °C, the “TM c-MycC27, second (higher) transition” value ([1]; SEM) was 80 ± 0.6 °C and the “ΔTM c-MycC27, first value (transition at lower temperature)” value [1, 4] was 0 ± 0.6 °C. The “effect on c-MycC27 thermal stability, in words” value [1] was “neither stabilized nor destabilized”, the Kd [2, 5] was greater than 50 µM and the Kd [2, 6] was 35 ± 3 µM. For the same molecule, the “Kd dsDNA” value [3] was “NS” and the “Kd dsDNA, 100 mM KCl” value [3] was “NS”.
